Reference: patent US12697330B2, “Therapeutic methods using vadadustat” (Akebia Therapeutics, Inc., priority 2021, dated 2026)

System: erythropoietin (EPO)
Experiment: Phase 1b study: pharmacodynamics, Baseline-unadjusted serum EPO concentration
Format: in vivo, human
Experimental: PK and EPO Sample. For each vadadustat treatment group, blood samples for vadadustat PK (and its metabolites) and EPO were collected at the following time points: Day 1: predose, and at 1, 2, 3, 4, 5, 8, and 11 hours post dose; Day 2: 24 hours (−2 hours) post Day 1 dose; Day 6: blood sample for EPO analysis only was collected predose on Day 6; Day 8: predose, and at 1, 2, 3, 4, 5, 8, 11 hours post dose, Day 10 or EOT: predose. For the ESA treatment group, blood samples for analysis of EPO were collected at the following time points: Day 1: predose, and at 0.25, 1, 2, 3, 4, 5, 8, and 11 hours post dose; Day 2: 24 hours (−2 hours) post Day 1 dose.
PD Sampling. For all vadadustat and ESA treatment groups, in addition to EPO, blood samples for Hb, reticulocytes and iron indices for PD analyses were collected on Day 1, Day 6 and Day 10. Hepcidin were collected predose on Day 1, Day 6, and Day 10 for PD analysis.
Secondary Endpoints. For each treatment group, PD parameters included, but were not limited to, as deemed appropriate: hepcidin, erythropoietin (EPO), iron indices (iron, ferritin, total iron-binding capacity [TIBC], TSAT), Hb, and reticulocytes.
The summary of serum concentration of Baseline-unadjusted EPO by time for the vadadustat treatment groups in the PK population are presented in FIGS. 1a-11b and FIGS. 12a-12b. The summary of PD parameters for Baseline-unadjusted serum EPO concentration for vadadustat treatment groups by dosing days for the PK population are summarized in Table 2.

O=C(O)CNC(=O)c1ncc(-c2cccc(Cl)c2)cc1O [Compound 1, {[5-(3-chlorophenyl)-3-hydroxypyridine-2-carbonyl]amino}acetic acid]
Baseline-Unadjusted serum EPO Tmax, Median (Vada 600 mg QD, Day 1): 10.09 h | Baseline-unadjusted serum EPO AUC0-11, Mean (SD) (Vada 600 mg QD, Day 1): 319 (150) h · mU/mL | Baseline-Unadjusted serum EPO Tmax, Median (Vada 600 mg QD, Day 8): 4.50 h | Baseline-unadjusted serum EPO AUC0-11, Mean (SD) (Vada 600 mg QD, Day 8 (AUClast)): 410 (286) h · mU/mL | Baseline-Unadjusted serum EPO Tmax, Median (Vada 750 mg QD, Day 1): 10.94 h | Baseline-unadjusted serum EPO AUC0-11, Mean (SD) (Vada 750 mg QD, Day 1): 569 (623) h · mU/mL | Baseline-Unadjusted serum EPO Tmax, Median (Vada 750 mg QD, Day 8): 5.01 h | Baseline-unadjusted serum EPO AUC0-11, Mean (SD) (Vada 750 mg QD, Day 8 (AUClast)): 677 (533) h · mU/mL | Baseline-Unadjusted serum EPO Tmax, Median (Vada 900 mg QD, Day 1): 10.00 h | Baseline-unadjusted serum EPO AUC0-11, Mean (SD) (Vada 900 mg QD, Day 1): 455 (438) h · mU/mL | Baseline-Unadjusted serum EPO Tmax, Median (Vada 900 mg QD, Day 8): 10.00 h | Baseline-unadjusted serum EPO AUC0-11, Mean (SD) (Vada 900 mg QD, Day 8 (AUClast)): 981 (1854) h · mU/mL

O=C(O)CNC(=O)c1ncc(-c2cccc(Cl)c2)cc1O [vadadustat, {[5-(3-chlorophenyl)-3-hydroxypyridine-2-carbonyl]amino}acetic acid]
EPO response (600, 750, 900 mg QD, Day 1 and Day 8): variable EPO response | EPO after administration versus dose (Day 8): dose-dependent increase of EPO
